The values that follow come from US9481871B2, “Nucleic acid encoding a polpeptide having aminotransferase activity, vectors and host cells comprising the nucleic acid” (KANEKA CORPORATION, priority 2010, dated 2016).

Common to all, as to assay type: biochemical, Arthrobacter sp. KNK04-25
The subject of test [1] is TAT. Kind of test: Specificity to amino group donor (dabsylated glutamic acid, HPLC). The settings on record: amino group donor 14 mM, 2-ketoglutaric acid 14 mM; for activity of TAT for amino group donor (in words): pH 7.0; for Relative activity: pH 7.0, 30° C., 60 minutes, benzylamine = 100. Here is the method:
The substrate specificity of TAT to amino group donors was examined using the cell-free extracts obtained in Example 5.
(§1) Each reagent was added to the enzyme solution (100 μL, each) so that the final concentrations were as specified in the following composition of the substrate solution. The volume of each reaction solution was adjusted to 400 μl with 0.1 M potassium phosphate buffer (pH 7.0). After 60 minutes of reaction at 30° C., 20 μL, of 3N hydrochloric acid was added to stop the reaction. Next, 80 μL, of a 0.2 M aqueous sodium carbonate solution and 200 μL, of an acetone solution of 3.3 mg/mL Dabsyl chloride were each added to 20 μL, of the thus obtained reaction solution, followed by 10 minutes of reaction at 70° C. Acetic acid (20 μL) was added to 50 μL, of the reaction solution and then the solution was stirred. The resultant was analyzed by high performance liquid chromatography under the following conditions and thus the quantity of dabsylated glutamic acid was determined. In addition, the activity of an enzyme used in this assay was adjusted so that the amount of glutamic acid generated was 2.8 mM or less.
(§2) [Composition of Substrate Solution]
[High Performance Liquid Chromatography Analysis Conditions] • Column: Cosmosil 5C8-MS (NACALAI TESQUE, INC.) • Eluent: distilled water 2000 mL/acetonitrile 500 mL/methanol 500 ml/KH2PO4 6.1 g/H3PO4 2.5 g • Flow rate: 1 mL/minute • Detection: 254 nm • Column temperature: 30° C.

Test [2] concerns TAT.
For test [3], the system named is TAT. Kind of test: Specificity 2 to amino group donor: typical substrates of ω-amino acid transaminase. The note with it: amino group donor 14 mM, 2-ketoglutaric acid 14 mM; for activity of the polypeptide for amino group donor (in words): pH 7.0; for Relative activity: pH 7.0, 30° C., 60 minutes, (S)-1-phenethylamine = 100. Here is the method: as §1, with “μL” for “μL,”
as §2
[High Performance Liquid Chromatography Analysis Conditions] • Column: YMC-Pack Pro C18 RS (YMC) • Eluent: acetonitrile/45 mM acetate buffer (pH 4.1)=35/65 (volume ratio) • Flow rate: 0.9 mL/minute • Detection: 254 nm • Column temperature: 30° C.

Test [4] deals with TAT. As to the kind of experiment: Specificity 3 to amino group donor with 1-benzyl-3-pyrrolidinone as receptor. The note with it: amino group donor 290 mM, 1-benzyl-3-pyrrolidinone 29 mM; for Relative activity: pH 7.0, 30° C., 90 minutes, L-alanine = 100. Here is the method: With the use of the cell-free extracts obtained in Example 5, the substrate specificity of TAT to an amino group donor was examined. Each reagent was added to enzyme solutions (200 μL each) so that the final concentrations were as specified in the following composition of the substrate solution. The volume of each reaction solution was adjusted to 400 μl with 0.1 M potassium phosphate buffer (pH 7.0). After 90 minutes of reaction at 30° C., 15 μL of 6N hydrochloric acid was added to stop the reaction. The thus obtained reaction solutions were analyzed by high performance liquid chromatography under the following conditions.
as §2
[High Performance Liquid Chromatography Quantitative Analysis Conditions] <Quantitative Analysis> • Column: Finepak SIL C18-T (JASCO Corporation) • Eluent: distilled water 945 mL/acetonitrile 555 mL/KH2PO4 7.5 g/SDS 2.16 g (adjusted with H3PO4 to pH 3.6) • Flow rate: 1 mL/minute • Detection: 254 nm • Column temperature: 40° C. <Analysis of Optical Purity>
Each reaction solution was treated with an appropriate amount of sodium carbonate so that it became basic, derivatized with dinitrobenzoyl chloride, and then analyzed under the following conditions. • Column: Chiralcel IA (Daicel Corporation) • Eluent: hexane/ethanol/diethylamine/acetonitrile=800/200/1/5 (volume ratio) • Flow rate: 0.8 mL/minute • Detection: 254 nm • Column temperature: 30° C.

Setting [5] is: amino group receptor 14 mM, (S)-1-phenethylamine 14 mM, pH 7.0, 30° C., 60 minutes, 2-ketoglutaric acid = 100.

Read-outs that look alike come from different tables or passages of the source.

As to `CCC(C)N` (racemic) [±2-butylamine], in test [1], the “activity of TAT for amino group donor (in words)” value is recorded as “exhibited activity” and the Relative activity was 7%. For `CCCC(=O)CC(=O)OC` [Methyl 3-oxohexanoate], the Relative activity in test [2] ([…], 2-ketoglutaric acid = 100) turned out to be 4%. Regarding `O=CC(=O)O` [Glyoxalic acid], the “activity of the polypeptide for amino group receptor (in words)” value in test [2] was “exhibited activity”. For the same compound, the Relative activity in test [2] ([…], 2-ketoglutaric acid = 100) is recorded as 40%. `CCOC(=O)CC(C)=O` [Ethyl acetoacetate]: in test [2] ([…], 2-ketoglutaric acid = 100), the Relative activity is 2%. On to `CC(=O)c1ccccn1` [2-acetylpyridine], for which, in test [2] ([…], 2-ketoglutaric acid = 100), the Relative activity amounted to 60%.

Take `NCCCCCC(=O)O` [6-aminocaproic acid]: in test [3], the “activity of the polypeptide for amino group donor (in words)” value was “did not exhibit activity” and the Relative activity is on record as 0%. With `CCCC(C)=O` [2-pentanone], the Relative activity in test [2] ([…], 2-ketoglutaric acid = 100) amounted to 1%. Still for that read-out and setting: under `CCCCCC(C)=O` [2-heptanone] stands 3%; under `CCC(=O)C(=O)O` [2-ketobutyric acid], 5%. On to `CC(=O)C(=O)O` [Pyruvic acid], for which the “activity of the polypeptide for amino group receptor (in words)” value in test [2] was “exhibited activity”. Also, the Relative activity in test [2] ([…], 2-ketoglutaric acid = 100) amounted to 10%.

For the compound `N[C@@H](CCC(=O)O)C(=O)O` [L-glutamic acid], in test [4], the “activity of TAT for amino group donor compared with L-alanine (in words)” value is given as “higher activity” and the Relative activity stood at 1650%. Turning to `CC(C)=O` [Acetone], the Relative activity in test [2] ([…], 2-ketoglutaric acid = 100) was found to be 0%.

Turning to `CCC(C)=O` [2-butanone], the Relative activity in test [2] ([…], 2-ketoglutaric acid = 100) was 0%. As for `O=C(O)CCC(=O)C(=O)O` [2-ketoglutaric acid], the “activity of the polypeptide for amino group receptor (in words)” value in test [2] (amino group receptor 14 mM, (S)-1-phenethylamine 14 mM) is recorded as “high activity”. Also, the Relative activity in test [2] (setting [5]) worked out at 100%. Turning to `NCCC(=O)O` [β-alanine], in test [3], the “activity of the polypeptide for amino group donor (in words)” value is on record as “did not exhibit activity” and the Relative activity is reported as 0%. Consider `O=C(O)C(=O)Cc1ccccc1` [Phenylpyruvic acid], for which, in test [2] ([…], 2-ketoglutaric acid = 100), the Relative activity is on record as 8%. The same measure, in the same setting: in the case of `O=C1CCCc2ccccc21` [1-tetralone] it was 1%. As for `O=C1CN2CCC1CC2` [Quinuclidinone], in test [2] (pH 7), the Relative activity was 0%. On to `Cl.NCCC(N)C(=O)O` (racemic) [±2,4-diaminobutyric acid·HCl], for which, in test [3], the “activity of the polypeptide for amino group donor (in words)” value is “did not exhibit activity” and the Relative activity came out at 0%.

For the compound `CCCC(=O)C(=O)O` [2-keto-n-valeric acid], the Relative activity in test [2] (setting [5]) is 3%. On the same count and under the same terms, in the case of `CCCC=O` [Butylaldehyde] it was 6%.

In the case of `CCC(=O)CC` [3-pentanone], the Relative activity in test [2] ([…], 2-ketoglutaric acid = 100) is on record as 1%.

Regarding `Cl.NCCCC[C@H](N)C(=O)O` [L-lysine·HCl], in test [3], the “activity of the polypeptide for amino group donor (in words)” value is “did not exhibit activity” and the Relative activity was found to be 0%.

As to `O=C(Cc1ccccc1)c1ccccc1` [Benzyl phenyl ketone], the Relative activity in test [2] (setting [5]) is 0%. In the case of `CCCCN` [n-butylamine], in test [1], the “activity of TAT for amino group donor (in words)” value is on record as “exhibited activity” and the Relative activity is on record as 4%. Turning to `COc1ccc2c(c1)CC(=O)CC2` [7-methoxy-2-tetralone], the Relative activity in test [2] ([…], 2-ketoglutaric acid = 100) is recorded as 0%. With `C[C@H](N)C(=O)O` [L-alanine], in test [4], the Relative activity came to 100%.

Turning to `NCCCCC(=O)O` [5-aminovaleric acid], in test [3], the “activity of the polypeptide for amino group donor (in words)” value is “did not exhibit activity” and the Relative activity stood at 0%. For the compound `NCCCC(=O)O` [4-aminobutyric acid], in test [3], the “activity of the polypeptide for amino group donor (in words)” value is reported as “did not exhibit activity” and the Relative activity is on record as 0%. On to `C[C@H](N)c1ccccc1` [(S)-α-phenethylamine], for which the Relative activity in test [3] turned out to be 100%. Take `O=C(O)CC(=O)C(=O)O` [Oxalacetic acid]: in test [2] ([…], 2-ketoglutaric acid = 100), the Relative activity was determined as 4%.

Regarding `NCCCCN` [Putrescine·2HCl], in test [3], the “activity of the polypeptide for amino group donor (in words)” value is reported as “did not exhibit activity” and the Relative activity was found to be 0%. On to `O=Cc1ccccc1` [Benzaldehyde], for which the Relative activity in test [2] ([…], 2-ketoglutaric acid = 100) was 70%. Consider `NCc1ccccc1` [Benzylamine], for which, in test [1], the “activity of TAT for amino group donor (in words)” value is given as “exhibited activity” and the Relative activity was 100%.

For `O=C1CCc2ccccc2C1` [2-tetralone], the Relative activity in test [2] ([…], 2-ketoglutaric acid = 100) came out at 1%. The same measure, in the same setting: under `O=C1CCN(Cc2ccccc2)C1` [1-benzyl-3-pyrrolidinone] stands 20%; under `CCC(=O)CC#N` [3-oxopentanenitrile], 0%; under `N#CCC(=O)c1ccccc1` [α-cyanoacetophenone], 0%. The same measure, in the same setting: in the case of `CCCCC(=O)CC` [3-heptanone] it was 5%. The same measure, in the same setting: under `CC(=O)CCO` [4-hydroxy butane-2-one] stands 0%.

In the case of `CCC(=O)CC(=O)OC` [Methyl 3-oxovalerate], the Relative activity in test [2] ([…], 2-ketoglutaric acid = 100) is on record as 4%. For the compound `CCCCC(C)=O` [2-hexanone], the Relative activity in test [2] ([…], 2-ketoglutaric acid = 100) was found to be 4%.
